Results as given in patent US20260124203A1, “CHEMICAL SYNTHETIC LETHALITY FOR ANTIMICROBIAL THERAPY” (priority 2024, published 2026).

Target: T1, FolE2 (Burkholderia thailandensis, UniProt Q2T7N4)
T1 construct: fused on or other part: N-terminal 6xHis tag from pET-28b(+) (NdeI/SacI)
Assay: biochemical
Set-up: species or system B. thailandensis
Details: read-out: apparent Ki

C=C1CC[C@H]2C(=C)CC[C@H]3C(=C)C(=O)O[C@@H]3[C@@H]12 [DHL, dehydrocostus lactone]
Ki: 87 ± 21 µM
